# In patent US20230174497A1, “RHEIN AMIDE DERIVATIVE AND PREPARATION METHOD AND USE THEREOF, AND INHIBITOR OF HEPATOCELLULAR CARCINOMA (HCC) WITH SPECIFIC RECQL4 EXPRESSION” (Shandong First Medical University & Shandong Academy of …, priority 2021, published 2023):
# What was measured:
# [1] = test system: HCC cells SNU398; test: CCK-8 cell proliferation assay, SNU398 cells; assay type: cell-based; details: for IC50: Homo sapiens, SNU-398, SNU398 cells (high RECQL4 expression), 48 h culture, CCK-8, OD 450 nm, Mean ± S.E.M; for IC50 on HCC cells SNU398 compared with IC50 on hepatocytes LO2 (selectivity in words): SNU398 versus LO2, CCK-8, 48 h
# Protocol: (§1) The effects of the above-prepared rhein amide derivatives on cell proliferation were detected by a CCK-8 kit.
# (§2) The CCK-8 kit can evaluate a proliferation activity of cells by detecting an absorbance at a 450 nm wavelength. SNU398 and LO2 cells were digested to obtain a cell suspension, the cell suspension was diluted with a medium to a density of about 5×10^3 cells/well, 100 µl of cell liquid was added to each well, and a blank group and a negative control group were set up. About 1.0000 mg of the derivative was added in a 0.5 mL EP tube, mixed with dimethyl sulfoxide (DMSO) to prepare a 5×10^-2 M stock solution, and stored at -20° C.
# (§3) The stock solutions of 21 compounds prepared in the examples and comparative examples were diluted to final concentrations of 100 µmol/L, 20 µmol/L, 4 µmol/L, 0.8 µmol/L, and 0.16 µmol/L separately using a concentration gradient stepwise dilution method. An original medium in a 96-well plate was discarded by aspiration, 100 µl of the dilutions of the 17 compounds were added to the 96-well plate, and three parallel wells were set up. The dilutions were culture in a cell culture incubator for 48 h. […] A stronger inhibitory ability led to a lower IC50 value, and results were listed in Table 1; statistical analysis and drawing of experimental data was conducted using Graphpad-prism 6.0 software, and a mean ± standard deviation was expressed as (Mean ± S.E.M).
# [2] = test system: hepatocytes LO2; test: CCK-8 cell proliferation assay, LO2 cells; assay type: cell-based; details: Hepatocyte, 48 h culture, CCK-8, OD 450 nm, Mean ± S.E.M
# Protocol: as §1, §2, §3
SMILES,IC50 [1] [µM],IC50 [2] [µM],melting point [°C],IC50 on HCC cells SNU398 compared with IC50 on hepatocytes LO2 (selectivity in words) [1]
"CCOC(=O)C(CC(C)C)NC(=O)c1cc(O)c2c(c1)C(=O)c1cccc(O)c1C2=O (centres unmarked) [Comparative Example 3, ethyl(4,5-dihydroxy-9,10-dioxo-9,10-dihydroanthracene-2-carbonyl)leucinate]",188 ± 94.4,57.1 ± 3.25,167.9 to 170,–
"CCC(C)C(NC(=O)c1cc(O)c2c(c1)C(=O)c1cccc(O)c1C2=O)C(=O)OC (centres unmarked) [Comparative Example 2, methyl 2-(4,5-dihydroxy-9,10-dioxy-9,10-dihydroanthracene-2-carboxamide)-3-methylvalerate]",470 ± 84.2,80.4 ± 2.36,179.7 to 182.3,–
"COC(=O)C(CC(C)C)NC(=O)c1cc(O)c2c(c1)C(=O)c1cccc(O)c1C2=O (centres unmarked) [Comparative Example 1, methyl (4,5-dihydroxy-9,10-dioxo-9,10-dihydroanthracene-2-carbonyl)leucine]",25.9 ± 6.94,0.81 ± 0.16,175.1 to 176.3,–
"COC(=O)C(C)NC(=O)c1cc(O)c2c(c1)C(=O)c1cccc(O)c1C2=O (centres unmarked) [Example 1, methyl(4,5-dihydroxy-9,10-dioxy-9,10-dihydroanthracene-2-carbonyl) alaninate]",0.46 ± 0.08,5.41,236.3 to 237.9,much smaller than the IC50 on hepatocytes LO2
"CCOC(=O)C(Cc1ccccc1)NC(=O)c1cc(O)c2c(c1)C(=O)c1cccc(O)c1C2=O (centres unmarked) [Comparative Example 5, ethyl (4,5-dihydroxy-9,10-dioxy-9,10-dihydroanthracene-2-carbonyl) phenylalaninate]",166 ± 7.62,228 ± 7.25,171 to 172.7,–
CCOC(=O)C(NC(=O)c1cc(O)c2c(c1)C(=O)c1cccc(O)c1C2=O)C(C)CC (centres unmarked) [Comparative Example 4],47.1 ± 11.5,18.2 ± 1.56,167 to 167.5,–
"CCOC(=O)C(NC(=O)c1cc(O)c2c(c1)C(=O)c1cccc(O)c1C2=O)C(C)C (centres unmarked) [Comparative Example 7, ethyl(4,5-dihydroxy-9,10-dioxo-9,10-dihydroanthracene-2-carbonyl)valerate]",161 ± 4.53,13.7 ± 0.89,202.1 to 202.7,–
"CC(C)CNC(=O)c1cc(O)c2c(c1)C(=O)c1cccc(O)c1C2=O [Comparative Example 8, 4,5-dihydroxy-N-isobutyl-9,10-dioxy-9,10-dihydroanthracene-2-carboxamide]",–,118 ± 12.3,–,–
"CCCCNC(=O)c1cc(O)c2c(c1)C(=O)c1cccc(O)c1C2=O [Example 6, N-butyl-4,5-dihydroxy-9,10-dioxy-9,10-dihydroanthracene-2-carboxamide]",5.85 ± 0.49,113 ± 8.56,215.2 to 215.9,much smaller than the IC50 on hepatocytes LO2
"CCOC(=O)CC(NC(=O)c1cc(O)c2c(c1)C(=O)c1cccc(O)c1C2=O)C(=O)OCC (centres unmarked) [Example 4, diethyl(4,5-dihydroxy-9,10-dioxo-9,10-dihydroanthracene-2-carbonyl)aspartate]",27.9 ± 3.45,117,174.7 to 175.2,much smaller than the IC50 on hepatocytes LO2
"CCCNC(=O)c1cc(O)c2c(c1)C(=O)c1cccc(O)c1C2=O [Example 5, 4,5-dihydroxy-9,10-dioxo-n-propyl-9,10-dihydroanthracene-2-carboxamide]",116 ± 5.25,228 ± 10.8,264.1 to 265,–
"CCOC(=O)C(CC)NC(=O)c1cc(O)c2c(c1)C(=O)c1cccc(O)c1C2=O (centres unmarked) [Example 2, ethyl 2-(4,5-dihydroxy-9,10-dioxy-9,10-dihydroanthracene-2-carboxamide)butanoate]",8.81 ± 0.78,104 ± 9.36,196.7 to 197.2,much smaller than the IC50 on hepatocytes LO2
"CC(=O)c1ccc(N2CCN(C(=O)c3cc(O)c4c(c3)C(=O)c3cccc(O)c3C4=O)CC2)cc1 [Comparative Example 10, 3-(4-(4-acetylphenyl)piperazin-1-carbonyl)-1,8-dihydroxyanthracene-9,10-dione]",222 ± 18.7,104 ± 9.96,270.1 to 272.2,–
CCOC(=O)N1CCN(C(=O)c2cc(O)c3c(c2)C(=O)c2cccc(O)c2C3=O)CC1 [Example 7],19 ± 1.96,26.3 ± 15.8,222.2 to 222.8,–
"CCOC(=O)CCC(NC(=O)c1cc(O)c2c(c1)C(=O)c1cccc(O)c1C2=O)C(=O)OCC (centres unmarked) [Example 3, diethyl(4,5-dihydroxy-9,10-dioxo-9,10-dihydroanthracene-2-carbonyl) glutamate]",66.8 ± 2.21,114 ± 4.11,202 to 202.3,–
"CCOC(=O)C(CCSC)NC(=O)c1cc(O)c2c(c1)C(=O)c1cccc(O)c1C2=O (centres unmarked) [Comparative Example 6, ethyl(4,5-dihydroxy-9,10-dioxo-9,10-dihydroanthracene-2-carbonyl)methioninate]",19.8 ± 1.23,7.77 ± 0.45,177.2 to 178,–
"COc1ccc(CNC(=O)c2cc(O)c3c(c2)C(=O)c2cccc(O)c2C3=O)cc1 [Comparative Example 9, 4,5-dihydroxy-N-(4-methoxybenzyl)-9,10-dioxy-9,10-dihydroanthracene-2-carboxamide]",111 ± 12.5,106 ± 9.72,244.5 to 249.4,–
